Test results reported in ChEMBL document CHEMBL5625242, “Discovery of brain permeable 2-Azabicyclo[2.2.2]octane sulfonamides as a novel class of presenilin-1 selective γ-secretase inhibitors” (Eur J Med Chem, 2023).

What was measured:
Type in all cases: cell-based
[1] = Inhibition of human PSEN2/APH1B expressed in MEF cells with Psen1/2 double knockout/Aph1ABC triple knockout by ELISA
[2] = Inhibition of human PSEN1/APH1B expressed in MEF cells with Psen1/2 double knockout/Aph1ABC triple knockout by ELISA
[3] = Inhibition of human PSEN1/APH1A expressed in MEF cells with Psen1/2 double knockout/Aph1ABC triple knockout by ELISA
[4] = Inhibition of human PSEN2/APH1A expressed in MEF cells with Psen1/2 double knockout/Aph1ABC triple knockout by ELISA

Compound	IC50 [1]	IC50 [2]	IC50 [3]	IC50 [4]
O=S(=O)(c1ccc(Cl)cc1)N1[C@H]2CC[C@@H]([C@H]1c1ccc(Cl)cc1)[C@@H](O)C2 (racemic)	> 2 µM	0.046 µM	0.147 µM	> 2 µM
O=C1C[C@@H]2CC[C@H]1[C@@H](c1ccc(F)c(F)c1)N2S(=O)(=O)c1ccc(Cl)s1 (racemic)	> 10 µM	1.95 µM	> 10 µM	> 10 µM
CC(=O)Nc1ccc([C@@H]2[C@@H]3CC[C@@H](CC3=O)N2S(=O)(=O)c2ccc(Cl)cc2)cc1 (racemic)	> 10 µM	0.709 µM	6.31 µM	> 10 µM
CC(=O)Nc1ccc([C@@H]2[C@@H]3CC[C@@H](CC3=O)N2S(=O)(=O)c2ccc(Cl)s2)cc1 (racemic)	8 µM	0.389 µM	3.02 µM	8.5 µM
CCNC(=O)Nc1ccc([C@@H]2[C@@H]3CC[C@@H](C[C@@H]3O)N2S(=O)(=O)c2ccc(Cl)cc2)cc1 (racemic)	4.79 µM	0.0794 µM	0.446 µM	2.34 µM
O=S(=O)(c1ccc(Cl)cc1)N1[C@H]2CC[C@H]([C@H](O)C2)[C@H]1c1ccc(C(F)(F)F)cc1	–	0.11 µM	0.759 µM	–
Cc1ccc(S(=O)(=O)N2[C@H]3CC[C@@H]([C@H]2c2ccc(C(F)(F)F)cc2)[C@@H](O)C3)cc1 (racemic)	> 8 µM	0.05 µM	0.208 µM	> 8 µM
CC(=O)Nc1ccc([C@@H]2[C@@H]3CC[C@@H](C[C@@H]3O)N2S(=O)(=O)c2ccc(Cl)cc2)cc1 (racemic)	> 1.3 µM	0.0245 µM	0.135 µM	1.2 µM
O=S(=O)(c1ccc(Cl)cc1)N1[C@H]2CC[C@@H]([C@H]1c1ccc(F)c(F)c1)[C@@H](O)C2 (racemic)	> 10 µM	0.058 µM	0.295 µM	> 10 µM

Next, values leading:

IC50 [1]	IC50 [2]	IC50 [3]	IC50 [4]	Compound
2 µM	0.052 µM	0.208 µM	1.41 µM	COCC(=O)Nc1ccc([C@@H]2[C@@H]3CC[C@@H](C[C@@H]3O)N2S(=O)(=O)c2ccc(Cl)cc2)cc1 (racemic)
7.58 µM	0.131 µM	0.691 µM	3.39 µM	N#Cc1ccc([C@@H]2[C@@H]3CC[C@@H](CC3=O)N2S(=O)(=O)c2ccc(Cl)cc2)c(F)c1 (racemic)
> 10 µM	0.109 µM	0.758 µM	> 10 µM	O=S(=O)(c1ccc(Cl)cc1)N1[C@H]2CC[C@H]([C@H](O)C2)[C@H]1c1ccc(C(F)(F)F)cc1 (racemic)
> 10 µM	0.588 µM	1.91 µM	> 10 µM	O=C1C[C@@H]2CC[C@H]1[C@@H](c1ccc(C(F)(F)F)nc1)N2S(=O)(=O)c1ccc(Cl)s1 (racemic)
> 2 µM	0.038 µM	0.263 µM	> 2 µM	O=S(=O)(c1ccc(Cl)cc1)N1[C@H]2CC[C@@H]([C@H]1c1ccc(C(F)(F)F)nc1)[C@@H](O)C2 (racemic)
3.39 µM	0.039 µM	0.147 µM	3.02 µM	N#Cc1ccc([C@@H]2[C@@H]3CC[C@@H](C[C@@H]3O)N2S(=O)(=O)c2ccc(Cl)s2)cn1 (racemic)
> 10 µM	0.776 µM	6.46 µM	> 10 µM	O=S(=O)(c1ccc(Cl)cc1)N1[C@H]2CC[C@H]([C@H](O)C2)[C@H]1c1ccc(C(F)(F)F)nc1 (racemic)
> 10 µM	5.89 µM	> 10 µM	> 10 µM	O=C1C[C@@H]2CC[C@H]1[C@@H](c1ccc(C(F)(F)F)cc1)N2S(=O)(=O)c1ccccc1Cl (racemic)
> 10 µM	> 10 µM	> 10 µM	> 10 µM	N#Cc1ccc([C@@H]2[C@@H]3CC[C@@H](C[C@H]3O)N2S(=O)(=O)c2ccc(Cl)cc2)cn1
